Laboratory results as given in US10167262B2, “Herbicidal substituted 3-arylpyrazoles” (FMC CORPORATION, priority 2014, dated 2019).
Several values for one entry are separate records, joined by “and”; a condition that tells them apart may be missing. Identical values can stand only once.

What was measured:
Assay type in all cases: in vivo
corn (ZEAMD, Zea mays) = assay: Test H postemergence mixture test of compound 39 with commercial herbicides, observed and Colby expected effect 0-100; conditions: Cmpd 39 alone, 14 days after treatment
Excerpt: (§1) This test evaluated the effect of mixtures of compound 39 with three commercial herbicides on five plant species. Seeds of plant species selected from corn (ZEAMD, Zea mays), soybean (GLXMA, Glycine max), palmer pigweed (AMAPA, Amaranthus palmeri), waterhemp (common waterhemp, AMATA, Amaranthus rudis), and Kochia (KCHSC, Kochia scoparia) were planted in pots containing Redi-Earth® planting medium (Scotts Company, 14111 Scottslawn Road, Marysville, Ohio 43041) comprising spaghnum peat moss, vermiculite, wetting agent and starter nutrients and treated with postemergence applications of test chemicals formulated in a non-phytotoxic solvent mixture which included a surfactant and applied using a volume of 299 L/ha. Each treatment was replicated four times. Treated plants and controls were maintained in a greenhouse using supplemental lighting to maintain a photoperiod of about 16 h; daytime and nighttime temperatures were about 24-30° C. and 19-21° C., respectively. Nutrients were applied using a balanced fertilizer applied through the watering system. At 14 days after treatment, all species were compared to controls and visually evaluated. Plant response ratings were calculated as the mean of the four replicates, are summarized in Tables H1 through H6, and are based on a scale of 0 to 100 where 0 is no effect and 100 is complete control. A dash (-) response means no test result.
(§2) Colby's Equation was used to determine the herbicidal effects expected from the mixtures. Colby's Equation (Colby, S. R. “Calculating Synergistic and Antagonistic Responses of Herbicide Combinations,” Weeds, 15(1), pp 20-22 (1967)) calculates the expected additive effect of herbicidal mixtures and for two active ingredients is of the form: Pa+b=Pa+Pb−(PaPb/100) • where • Pa+b is the percentage effect of the mixture expected from additive contribution of the individual components: • Pa is the observed percentage effect of the first active ingredient at the same use rate as in the mixture, and • Pb is the observed percentage effect of the second active ingredient at the same use rate as in the mixture. In the following Tables, rates are shown in grams of active ingredient per hectare (g a.i./ha); “Obsd.” is the observed effect. “Exp.” is the expected effect calculated from Colby's Equation.

[1] = test system: Kochia (KCHSC, Kochia scoparia); assay: as above; conditions: Cmpd 39 alone, 14 days after treatment
Excerpt: as §1, §2

[2] = test system: waterhemp (common waterhemp, AMATA, Amaranthus rudis); assay: as above; conditions: Cmpd 39 alone, 14 days after treatment
Excerpt: as §1, §2

[3] = test system: blackgrass (Alopecurus myosuroides); assay: Test D postemergence controlled growth environment test, plant response rating 0-100
Excerpt: (§3) Seeds of plant species selected from bluegrass (annual bluegrass, Poa annua), blackgrass (Alopecurus myosuroides), canarygrass (Phalaris minor), chickweed (common chickweed, Stellaria media), galium (catchweed bedstraw, Galium aparine), downy bromegrass (Bromus tectorum), field violet (Viola arvensis), green foxtail (Setaria viridis), deadnettle (henbit deadnettle, Lamium amplexicaule), Italian ryegrass (Lolium multiflorum), kochia (Kochia scoparia), lambsquarters (Chenopodium album), oilseed rape (Brassica napus), pigweed (Amaranthus retroflexus), Russian thistle (Salsola kali), spring barley (Hordeum vulgare), spring wheat (Triticum aestivum), wild buckwheat (Polygonum convolvulus), wild mustard (Sinapis arvensis), wild oat (Avena fatua), windgrass (Apera spica-venti), winter barley (Hordeum vulgare), and winter wheat (Triticum aestivum) were planted in pots containing Redi-Earth® planting medium (Scotts Company, 14111 Scottslawn Road, Marysville, Ohio 43041) comprising spaghnum peat moss, vermiculite, wetting agent and starter nutrients and treated with postemergence applications of test chemicals formulated in a non-phytotoxic solvent mixture which included a surfactant. Plants ranged in height from 2 to 18 cm (1- to 4-leaf stage). Treated plants and controls were maintained in a controlled growth environment for 14 days after which time all species were compared to controls and visually evaluated. Plant response ratings, summarized in Table D, are based on a scale of 0 to 100 where 0 is no effect and 100 is complete control. A dash (-) response means no test result.

[4] = test system: deadnettle (henbit deadnettle, Lamium amplexicaule); assay: as above
Excerpt: as §3

[5] = test system: lambsquarters (Chenopodium album); assay: as above
Excerpt: as §3

[6] = test system: field violet (Viola arvensis); assay: as above
Excerpt: as §3

[7] = test system: green foxtail (Setaria viridis); assay: as above
Excerpt: as §3

[8] = test system: wild mustard (Sinapis arvensis); assay: as above
Excerpt: as §3

[9] = test system: galium (catchweed bedstraw, Galium aparine); assay: as above
Excerpt: as §3

[10] = test system: winter barley (Hordeum vulgare); assay: as above
Excerpt: as §3

[11] = test system: pigweed (Amaranthus retroflexus); assay: as above
Excerpt: as §3

[12] = test system: Russian thistle (Salsola kali); assay: as above
Excerpt: as §3

[13] = test system: oilseed rape (Brassica napus); assay: as above
Excerpt: as §3

## C#CCn1cc(C(=O)c2ccccc2)c(-c2cc(Cl)cc(Cl)c2)n1 [Compound 39, [3-(3,5-dichlorophenyl)-1-(2-propyn-1-yl)-1H-pyrazol-4-yl]phenylmethanone]
Corn (ZEAMD, Zea mays); 16 g a.i./ha
  ZEAMD Obsd. (observed effect): 0
Corn (ZEAMD, Zea mays); 31 g a.i./ha
  ZEAMD Obsd. (observed effect): 0
Corn (ZEAMD, Zea mays); 62 g a.i./ha
  ZEAMD Obsd. (observed effect): 0
[1]; 16 g a.i./ha
  KCHSC Obsd. (observed effect): 47
[1]; 31 g a.i./ha
  KCHSC Obsd. (observed effect): 60 and 47
[1]; 62 g a.i./ha
  KCHSC Obsd. (observed effect): 64
[2]; 16 g a.i./ha
  AMATA Obsd. (observed effect): 75
[2]; 31 g a.i./ha
  AMATA Obsd. (observed effect): 88 and 83
[2]; 62 g a.i./ha
  AMATA Obsd. (observed effect): 79
[3]; 16 g ai/ha
  Plant response rating, Blackgrass: 0
[3]; 31 g ai/ha
  Plant response rating, Blackgrass: 0
[3]; 62 g ai/ha
  Plant response rating, Blackgrass: 0
[3]; 125 g ai/ha
  Plant response rating, Blackgrass: 0
[3]; 250 g ai/ha
  Plant response rating, Blackgrass: 20
[4]; 16 g ai/ha
  Plant response rating, Deadnettle: 0
[4]; 31 g ai/ha
  Plant response rating, Deadnettle: 0
[4]; 62 g ai/ha
  Plant response rating, Deadnettle: 0
[4]; 125 g ai/ha
  Plant response rating, Deadnettle: 0
[4]; 250 g ai/ha
  Plant response rating, Deadnettle: 0
[5]; 16 g ai/ha
  Plant response rating, Lambsquarters: 0
[5]; 31 g ai/ha
  Plant response rating, Lambsquarters: 0
[5]; 62 g ai/ha
  Plant response rating, Lambsquarters: 10
[5]; 125 g ai/ha
  Plant response rating, Lambsquarters: 20
[5]; 250 g ai/ha
  Plant response rating, Lambsquarters: 25
[6]; 16 g ai/ha
  Plant response rating, Field Violet: 0
[6]; 31 g ai/ha
  Plant response rating, Field Violet: 0
[6]; 62 g ai/ha
  Plant response rating, Field Violet: 10
[6]; 125 g ai/ha
  Plant response rating, Field Violet: 10
[7]; 16 g ai/ha
  Plant response rating, Foxtail, Green: 0
[7]; 31 g ai/ha
  Plant response rating, Foxtail, Green: 0
[7]; 62 g ai/ha
  Plant response rating, Foxtail, Green: 0
[7]; 125 g ai/ha
  Plant response rating, Foxtail, Green: 0
[7]; 250 g ai/ha
  Plant response rating, Foxtail, Green: 10
[8]; 16 g ai/ha
  Plant response rating, Mustard, Wild: 20
[8]; 31 g ai/ha
  Plant response rating, Mustard, Wild: 20
[8]; 62 g ai/ha
  Plant response rating, Mustard, Wild: 70
[8]; 125 g ai/ha
  Plant response rating, Mustard, Wild: 70
[8]; 250 g ai/ha
  Plant response rating, Mustard, Wild: 80
[9]; 16 g ai/ha
  Plant response rating, Galium: 0
[9]; 31 g ai/ha
  Plant response rating, Galium: 0
[9]; 62 g ai/ha
  Plant response rating, Galium: 0
[9]; 125 g ai/ha
  Plant response rating, Galium: 0
[9]; 250 g ai/ha
  Plant response rating, Galium: 0
[10]; 16 g ai/ha
  Plant response rating, Barley, Winter: 0
[10]; 31 g ai/ha
  Plant response rating, Barley, Winter: 0
[10]; 62 g ai/ha
  Plant response rating, Barley, Winter: 0
[10]; 125 g ai/ha
  Plant response rating, Barley, Winter: 0
[10]; 250 g ai/ha
  Plant response rating, Barley, Winter: 0
[11]; 16 g ai/ha
  Plant response rating, Pigweed: 30
[11]; 31 g ai/ha
  Plant response rating, Pigweed: 30
[11]; 62 g ai/ha
  Plant response rating, Pigweed: 50
[11]; 125 g ai/ha
  Plant response rating, Pigweed: 75
[11]; 250 g ai/ha
  Plant response rating, Pigweed: 80
[12]; 16 g ai/ha
  Plant response rating, Russian Thistle: 0
[12]; 31 g ai/ha
  Plant response rating, Russian Thistle: 0
[12]; 62 g ai/ha
  Plant response rating, Russian Thistle: 10
[12]; 125 g ai/ha
  Plant response rating, Russian Thistle: 20
[12]; 250 g ai/ha
  Plant response rating, Russian Thistle: 25
[13]; 16 g ai/ha
  Plant response rating, Oilseed Rape: 0
[13]; 31 g ai/ha
  Plant response rating, Oilseed Rape: 0
[13]; 62 g ai/ha
  Plant response rating, Oilseed Rape: 10
[13]; 125 g ai/ha
  Plant response rating, Oilseed Rape: 20
[13]; 250 g ai/ha
  Plant response rating, Oilseed Rape: 60

## Clc1cc(Cl)cc(-c2n[nH]cc2C(=NN2CCCC2)c2ccccc2)c1 [Compound 30, N-[[3-(3,5-dichlorophenyl)-1H-pyrazol-4-yl]phenylmethylene]-1-pyrrolidinamine]
[3]; 16 g ai/ha
  Plant response rating, Blackgrass: 0
[3]; 31 g ai/ha
  Plant response rating, Blackgrass: 0
[3]; 62 g ai/ha
  Plant response rating, Blackgrass: 0
[3]; 125 g ai/ha
  Plant response rating, Blackgrass: 10
[3]; 250 g ai/ha
  Plant response rating, Blackgrass: 10
[4]; 16 g ai/ha
  Plant response rating, Deadnettle: 0
[4]; 31 g ai/ha
  Plant response rating, Deadnettle: 0
[4]; 62 g ai/ha
  Plant response rating, Deadnettle: 0
[4]; 125 g ai/ha
  Plant response rating, Deadnettle: 10
[4]; 250 g ai/ha
  Plant response rating, Deadnettle: 10
[5]; 16 g ai/ha
  Plant response rating, Lambsquarters: 0
[5]; 31 g ai/ha
  Plant response rating, Lambsquarters: 0
[5]; 62 g ai/ha
  Plant response rating, Lambsquarters: 30
[5]; 125 g ai/ha
  Plant response rating, Lambsquarters: 40
[5]; 250 g ai/ha
  Plant response rating, Lambsquarters: 50
[6]; 16 g ai/ha
  Plant response rating, Field Violet: 0
[6]; 31 g ai/ha
  Plant response rating, Field Violet: 0
[6]; 62 g ai/ha
  Plant response rating, Field Violet: 10
[6]; 125 g ai/ha
  Plant response rating, Field Violet: 10
[6]; 250 g ai/ha
  Plant response rating, Field Violet: 15
[7]; 16 g ai/ha
  Plant response rating, Foxtail, Green: 0
[7]; 31 g ai/ha
  Plant response rating, Foxtail, Green: 0
[7]; 62 g ai/ha
  Plant response rating, Foxtail, Green: 0
[7]; 125 g ai/ha
  Plant response rating, Foxtail, Green: 0
[7]; 250 g ai/ha
  Plant response rating, Foxtail, Green: 0
[8]; 16 g ai/ha
  Plant response rating, Mustard, Wild: 60
[8]; 31 g ai/ha
  Plant response rating, Mustard, Wild: 60
[8]; 62 g ai/ha
  Plant response rating, Mustard, Wild: 60
[8]; 125 g ai/ha
  Plant response rating, Mustard, Wild: 70
[8]; 250 g ai/ha
  Plant response rating, Mustard, Wild: 85
[9]; 16 g ai/ha
  Plant response rating, Galium: 0
[9]; 31 g ai/ha
  Plant response rating, Galium: 0
[9]; 62 g ai/ha
  Plant response rating, Galium: 0
[9]; 125 g ai/ha
  Plant response rating, Galium: 0
[9]; 250 g ai/ha
  Plant response rating, Galium: 0
[10]; 16 g ai/ha
  Plant response rating, Barley, Winter: 0
[10]; 31 g ai/ha
  Plant response rating, Barley, Winter: 0
[10]; 62 g ai/ha
  Plant response rating, Barley, Winter: 0
[10]; 125 g ai/ha
  Plant response rating, Barley, Winter: 0
[10]; 250 g ai/ha
  Plant response rating, Barley, Winter: 0
[11]; 16 g ai/ha
  Plant response rating, Pigweed: 25
[11]; 31 g ai/ha
  Plant response rating, Pigweed: 60
[11]; 62 g ai/ha
  Plant response rating, Pigweed: 70
[11]; 125 g ai/ha
  Plant response rating, Pigweed: 80
[11]; 250 g ai/ha
  Plant response rating, Pigweed: 90
[12]; 16 g ai/ha
  Plant response rating, Russian Thistle: 0
[12]; 31 g ai/ha
  Plant response rating, Russian Thistle: 10
[12]; 62 g ai/ha
  Plant response rating, Russian Thistle: 20
[12]; 125 g ai/ha
  Plant response rating, Russian Thistle: 40
[12]; 250 g ai/ha
  Plant response rating, Russian Thistle: 50
[13]; 16 g ai/ha
  Plant response rating, Oilseed Rape: 30
[13]; 31 g ai/ha
  Plant response rating, Oilseed Rape: 50
[13]; 62 g ai/ha
  Plant response rating, Oilseed Rape: 60
[13]; 125 g ai/ha
  Plant response rating, Oilseed Rape: 85
[13]; 250 g ai/ha
  Plant response rating, Oilseed Rape: 0
